Data published in patent US11608337B2, “Heterocyclic compounds as immunomodulators” (Incyte Corporation, priority 2016, dated 2023).

Target: PD-1/PD-L1 protein/protein interaction (Homo sapiens (Human), UniProt Q9NZQ7)
Assay: PD-1/PD-L1 Homogeneous Time-Resolved Fluorescence (HTRF) Binding Assay
Conditions: recombinant human PD-L1 (19-238) His-tag, human PD-1 (25-167) Fc tag; 25° C., PBS pH 7.4
Experimental: Example A. PD-1/PD-L1 Homogeneous Time-Resolved Fluorescence (HTRF) Binding Assay
The assays were conducted in a standard black 384-well polystyrene plate with a final volume of 20 μL. Inhibitors were first serially diluted in DMSO and then added to the plate wells before the addition of other reaction components. The final concentration of DMSO in the assay was 1%. The assays were carried out at 25° C. in the PBS buffer (pH 7.4) with 0.05% Tween-20 and 0.1% BSA. Recombinant human PD-L1 protein (19-238) with a His-tag at the C-terminus was purchased from AcroBiosystems (PD1-H5229). Recombinant human PD-1 protein (25-167) with Fc tag at the C-terminus was also purchased from AcroBiosystems (PD1-H5257). PD-L1 and PD-1 proteins were diluted in the assay buffer and 10 μL was added to the plate well. Plates were centrifuged and proteins were preincubated with inhibitors for 40 minutes. The incubation was followed by the addition of 10 μL of HTRF detection buffer supplemented with Europium cryptate-labeled anti-human IgG (PerkinElmer-AD0212) specific for Fc and anti-His antibody conjugated to SureLight®-Allophycocyanin (APC, PerkinElmer-AD0059H). After centrifugation, the plate was incubated at 25° C. for 60 min. before reading on a PHERAstar FS plate reader (665 nm/620 nm ratio). Final concentrations in the assay were […], 10 nM PD-L1, 1 nM europium anti-human IgG and 20 nM anti-His-Allophycocyanin. IC50 determination was performed by fitting the curve of percent control activity versus the log of the inhibitor concentration using the GraphPad Prism 5.0 software.
Data obtained for the Example compounds using the PD-1/PD-L homogenous time-resolved fluorescence (HTRF) binding assay described in Example A is provided in Table 1.

Chain of PD-1/PD-L1 protein/protein interaction (Q9NZQ7 19-238): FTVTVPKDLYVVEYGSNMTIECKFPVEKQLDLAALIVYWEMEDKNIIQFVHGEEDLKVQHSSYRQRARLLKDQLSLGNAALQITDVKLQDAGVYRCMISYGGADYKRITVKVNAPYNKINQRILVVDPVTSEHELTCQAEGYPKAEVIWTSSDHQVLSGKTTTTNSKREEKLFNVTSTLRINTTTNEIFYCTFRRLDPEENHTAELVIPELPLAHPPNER

IC50	SMILES
100 to 500 nM	Cc1c(-c2ccccc2)cccc1-c1nc2c(s1)CN(C[C@@H]1C[C@H]1C(=O)O)CC2 (relative stereo) [Example 9, Trans-2-{[2-(2-methylbiphenyl-3-yl)-6,7-dihydro[1,3]thiazolo[5,4-c]pyridin-5(4H)-yl]methyl}cyclopropanecarboxylic acid]
500 to 10000 nM	Cc1c(-c2ccccc2)cccc1-c1nc2c(s1)CCNC2 [Example 1, 2-(2-methylbiphenyl-3-yl)-4,5,6,7-tetrahydro[1,3]thiazolo[4,5-c]pyridine]
≤ 100 nM	Cc1c(-c2ccccc2)cccc1-c1nc2c(s1)CNCC2 [Example 2, 2-(2-methylbiphenyl-3-yl)-4,5,6,7-tetrahydro[1,3]thiazolo[5,4-c]pyridine]
≤ 100 nM	Cc1c(-c2ccccc2)cccc1-c1nc2c(s1)CN(C)CC2 [Example 3, 5-methyl-2-(2-methylbiphenyl-3-yl)-4,5,6,7-tetrahydro[1,3]thiazolo[5,4-c]pyridine]
≤ 100 nM	Cc1c(-c2ccccc2)cccc1-c1nc2c(s1)CN(CCO)CC2 [Example 4, 2-[2-(2-methylbiphenyl-3-yl)-6,7-dihydro[1,3]thiazolo[5,4-c]pyridin-5(4H)-yl]ethanol]
≤ 100 nM	Cc1c(-c2ccccc2)cccc1-c1nc2c(s1)CN(C[C@H](C)O)CC2 [Example 5, (2S)-1-[2-(2-methylbiphenyl-3-yl)-6,7-dihydro[1,3]thiazolo[5,4-c]pyridin-5(4H)-yl]propan-2-ol]
100 to 500 nM	Cc1c(-c2ccccc2)cccc1-c1nc2c(s1)CN(C1CCOCC1)CC2 [Example 6, 2-(2-methylbiphenyl-3-yl)-5-(tetrahydro-2H-pyran-4-yl)-4,5,6,7-tetrahydro[1,3]thiazolo[5,4-c]pyridine]
≤ 100 nM	Cc1c(-c2ccccc2)cccc1-c1nc2c(s1)CN(C1CCC(C(=O)O)CC1)CC2 (stereo not shown) [Example 7, 4-[2-(2-methylbiphenyl-3-yl)-6,7-dihydro[1,3]thiazolo[5,4-c]pyridin-5(4H)-yl]cyclohexanecarboxylic acid]
≤ 100 nM	Cc1c(-c2ccccc2)cccc1-c1nc2c(s1)CN(CCCC(=O)O)CC2 [Example 8, 4-[2-(2-methylbiphenyl-3-yl)-6,7-dihydro[1,3]thiazolo[5,4-c]pyridin-5(4H)-yl]butanoic acid]
100 to 500 nM	Cc1c(-c2ccccc2)cccc1-c1nc2c(s1)CN(Cc1cn[nH]c1)CC2 [Example 10, 2-(2-methylbiphenyl-3-yl)-5-(1H-pyrazol-4-ylmethyl)-4,5,6,7-tetrahydro[1,3]thiazolo[5,4-c]pyridine]
100 to 500 nM	Cc1c(-c2ccccc2)cccc1-c1nc2c(s1)CN(C1CCC(CC#N)CC1)CC2 (stereo not shown) [Example 11, {4-[2-(2-methylbiphenyl-3-yl)-6,7-dihydro[1,3]thiazolo[5,4-c]pyridin-5(4H)-yl]cyclohexyl}acetonitrile]
100 to 500 nM	Cc1c(-c2ccccc2)cccc1-c1cc2n(n1)CCNC2 [Example 12, 2-(2-methylbiphenyl-3-yl)-4,5,6,7-tetrahydropyrazolo[1,5-a]pyrazine]
≤ 100 nM	N#Cc1c(-c2ccc3c(c2)OCCO3)cccc1-c1nc2c(s1)CNCC2 [Example 13, 2-(2,3-dihydro-1,4-benzodioxin-6-yl)-6-(4,5,6,7-tetrahydro[1,3]thiazolo[5,4-c]pyridin-2-yl)benzonitrile]
≤ 100 nM	Cc1c(-c2ccccc2)ccnc1-c1nc2c(s1)CNCC2 [Example 14, 2-(3-methyl-4-phenylpyridin-2-yl)-4,5,6,7-tetrahydro[1,3]thiazolo[5,4-c]pyridine]
≤ 100 nM	COc1cccc(-c2ccnc(-c3nc4c(s3)CNCC4)c2C)c1 [Example 15, 2-[4-(3-methoxyphenyl)-3-methylpyridin-2-yl]-4,5,6,7-tetrahydro[1,3]thiazolo[5,4-c]pyridine]
≤ 100 nM	Cc1c(-c2ccc3c(c2)OCCO3)ccnc1-c1nc2c(s1)CNCC2 [Example 16, 2-[4-(2,3-dihydro-1,4-benzodioxin-6-yl)-3-methylpyridin-2-yl]-4,5,6,7-tetrahydro[1,3]thiazolo[5,4-c]pyridine]

IC50	SMILES
100 to 500 nM	Cc1c(-c2ccccc2)cccc1-n1cc2c(n1)CCNC2 [Example 17, 2-(2-methylbiphenyl-3-yl)-4,5,6,7-tetrahydro-2H-pyrazolo[4,3-c]pyridine]
≤ 100 nM	Cc1c(-c2ccccc2)cccc1-n1cc2c(n1)CNCC2 [Example 18, 2-(2-methylbiphenyl-3-yl)-4,5,6,7-tetrahydro-2H-pyrazolo[3,4-c]pyridine]
500 to 10000 nM	Cc1c(-c2ccccc2)cccc1-c1nc2c(s1)CNCC2(C)C [Example 19, 7,7-dimethyl-2-(2-methylbiphenyl-3-yl)-4,5,6,7-tetrahydro[1,3]thiazolo[5,4-c]pyridine]
500 to 10000 nM	Cc1c(-c2ccccc2)cccc1-c1cn2c(n1)CNCC2 [Example 20, 2-(2-methylbiphenyl-3-yl)-5,6,7,8-tetrahydroimidazo[1,2-a]pyrazine]
500 to 10000 nM	Cc1c(-c2ccccc2)cccc1-c1nc2c([nH]1)CCNC2 [Example 21, 2-(2-methylbiphenyl-3-yl)-4,5,6,7-tetrahydro-1H-imidazo[4,5-c]pyridine]
≤ 100 nM	Cc1c(-c2ccccc2)cccc1-c1nc2c(o1)CNCC2 [Example 22, 2-(2-methylbiphenyl-3-yl)-4,5,6,7-tetrahydro[1,3]oxazolo[5,4-c]pyridine]
≤ 100 nM	Cc1c(-c2ccccc2)cccc1-c1nc2c(o1)CCNC2 [Example 23, 2-(2-methylbiphenyl-3-yl)-4,5,6,7-tetrahydro[1,3]oxazolo[4,5-c]pyridine]
≤ 100 nM	Cc1c(-c2ccccc2)cccc1-c1nc2c(o1)CCN(C)C2 [Example 24, 5-methyl-2-(2-methylbiphenyl-3-yl)-4,5,6,7-tetrahydro[1,3]oxazolo[4,5-c]pyridine]
100 to 500 nM	Cc1c(-c2ccccc2)cccc1-c1nc2n(n1)CCNC2 [Example 25, 2-(2-methylbiphenyl-3-yl)-5,6,7,8-tetrahydro[1,2,4]triazolo[1,5-a]pyrazine]
500 to 10000 nM	Cc1c(-c2nc3c(s2)CNCC3)ccnc1-c1ccc2c(c1)OCCO2 [Example 26, 2-[2-(2,3-dihydro-1,4-benzodioxin-6-yl)-3-methylpyridin-4-yl]-4,5,6,7-tetrahydro[1,3]thiazolo[5,4-c]pyridine]
100 to 500 nM	Cc1c(-c2ccsc2)cccc1-c1nc2c(s1)CNCC2 [Example 27, 2-[2-methyl-3-(3-thienyl)phenyl]-4,5,6,7-tetrahydro[1,3]thiazolo[5,4-c]pyridine]
≤ 100 nM	COc1cccc(-c2cccc(-c3nc4c(s3)CNCC4)c2C)c1 [Example 28, 2-(3′-methoxy-2-methylbiphenyl-3-yl)-4,5,6,7-tetrahydro[1,3]thiazolo[5,4-c]pyridine]
500 to 10000 nM	Cc1c(C2=CCOCC2)cccc1-c1nc2c(s1)CNCC2 [Example 29, 2-[3-(3,6-dihydro-2H-pyran-4-yl)-2-methylphenyl]-4,5,6,7-tetrahydro[1,3]thiazolo[5,4-c]pyridine]
100 to 500 nM	COc1cc(-c2cccc(-c3nc4c(s3)CNCC4)c2C)ccn1 [Example 30, 2-[3-(2-methoxypyridin-4-yl)-2-methylphenyl]-4,5,6,7-tetrahydro[1,3]thiazolo[5,4-c]pyridine]
500 to 10000 nM	Cc1c(-c2ccc(F)cn2)cccc1-c1nc2c(s1)CNCC2 [Example 31, 2-[3-(5-fluoropyridin-2-yl)-2-methylphenyl]-4,5,6,7-tetrahydro[1,3]thiazolo[5,4-c]pyridine]
